Measured values published in patent publication US10639284B2, “Immunomodulator compounds” (CHEMOCENTRYX, INC., priority 2016, dated 2020).
Like-named read-outs stand apart in the source and are kept apart here.

Biological target: human PD-L1 / Human PD-1 (Homo sapiens (Human), UniProt Q9NZQ7)
Assay: Enzyme-Linked Immunosorbent Assay (ELISA), PD-1/PD-L1 binding
Details: plate-coated human PD-L1, biotinylated human PD-1, read-out: ELISA IC50
Procedure: Plates were coated with 1 μg/mL of human PD-L1 (obtained from R&D) in PBS overnight at 4° C. The wells were then blocked with PBS containing 2% BSA in PBS (W/V) with 0.05% TWEEN-20 for 1 hour at 37° C. The plates were washed 3 times with PBS/0.05% TWEEN-20 and the samples were diluted to 1:5 in dilution medium in the ELISA plates. Human PD-1 and biotin 0.3 μg/mL (ACRO Biosystems) were added and incubated for 1 hour at 37° C. then washed 3 times with PBS/0.05% TWEEN-20. A second block was added with PBS containing 2% BSA in PBS (W/V)/0.05% TWEEN-20 for 10 min at 37° C. and was washed 3 times with PBS/0.05% TWEEN-20. Streptavidin-HRP was added for 1 hour at 37° C. then washed 3 times with PBS/0.05% TWEEN-20. TMB substrate was added and reacted for 20 min at 37° C. A stop solution (2 N aqueous H2SO4) was added. The absorbance was read at 450 nm using a micro-plate spectrophotometer.
Compounds in Table 2 and Table 3 were prepared by methods as described in the Examples, and evaluated according to the assay below.

Sequence of human PD-L1 / Human PD-1 (Q9NZQ7 19-239): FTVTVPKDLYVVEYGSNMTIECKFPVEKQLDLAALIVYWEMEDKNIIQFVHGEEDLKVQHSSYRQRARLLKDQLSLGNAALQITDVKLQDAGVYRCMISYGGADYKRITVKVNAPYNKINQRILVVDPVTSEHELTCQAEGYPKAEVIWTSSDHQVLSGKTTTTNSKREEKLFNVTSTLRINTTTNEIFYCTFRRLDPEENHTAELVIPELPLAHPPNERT

| SMILES | IC50 (Table 3) | IC50 (Table 2) |
| --- | --- | --- |
| N#Cc1cncc(COc2cc(O[C@H]3CCc4c(-c5ccc6c(c5)OC(F)(F)O6)cccc43)c(Cl)cc2CN[C@@H](CO)C(=O)O)c1 [Example 3.107] | 500 to 20000 nM | – |
| N#Cc1cc(C#N)cc(COc2cc(O[C@H]3CCc4c(-c5ccccc5)cccc43)c(Cl)cc2CN[C@@H](CO)C(=O)O)c1 [Example 3.022] | < 100 nM | – |
| N#Cc1cncc(COc2cc(O[C@H]3CCc4c(-c5ccc6c(c5F)OCCO6)cccc43)c(Cl)cc2CN[C@H]2CCCC[C@@H]2C(=O)O)c1 [Example 3.036] | 100 to 500 nM | – |
| N#Cc1cncc(COc2cc(O[C@H]3CCc4c(-c5ccccc5F)cccc43)c(Cl)cc2CNCCCN2CCS(=O)(=O)CC2)c1 [Example 3.051] | 100 to 500 nM | – |
| N#Cc1cncc(COc2cc(OC3CCc4c(-c5ccccc5)cccc43)c(Cl)cc2CNC[C@@H](O)CC(=O)O)c1 (stereo partly shown) [Example 1.002] | – | 100 to 500 nM |
| COc1cccc(-c2cccc3c2CC[C@@H]3Oc2cc(OCc3cncc(C#N)c3)c(CNCc3ccc(B(O)O)cc3)cc2Cl)c1F [Example 2.066] | – | 500 to 20000 nM |
| COc1ccc(-c2cccc3c2CC[C@@H]3Oc2cc(OCc3cncc(C#N)c3)c(CN[C@@H](CO)C(=O)O)cc2Cl)cc1OC [Example 2.021] | – | 500 to 20000 nM |
| N#Cc1cncc(COc2cc(O[C@H]3CCc4c(-c5cccc6ccccc56)cccc43)c(Cl)cc2CN[C@@H](CO)C(=O)O)c1 [Example 3.126] | 100 to 500 nM | – |
| COc1cccc(-c2cccc3c2CCC3CCOc2cc(OCc3cncc(C#N)c3)c(CN[C@@H](CO)C(=O)O)cc2Cl)c1F (stereo partly shown) [Example 2.085] | – | 500 to 20000 nM |
| CCOc1cc(NC2CCc3c(-c4ccccc4F)cccc32)c(Cl)cc1CN[C@@H](CO)C(=O)O (stereo partly shown) [Example 3.133] | 100 to 500 nM | – |
| CC(C)OC(=O)[C@@H](NCc1cc(Cl)c(O[C@H]2CCc3c(-c4ccccc4F)cccc32)cc1OCc1cncc(C#N)c1)[C@@H](C)O [Example 2.169] | – | 500 to 20000 nM |
| Cc1cc(C#N)cc(COc2cc(O[C@H]3CCc4c(-c5ccccc5F)cccc43)c(Cl)cc2CN[C@@H](CO)C(=O)O)c1 [Example 3.055] | 100 to 500 nM | – |
| COC(=O)Cc1ccccc1-c1cccc2c1CC[C@@H]2Oc1cc(OCc2cncc(C#N)c2)c(CN[C@@H](CO)C(=O)O)cc1Cl [Example 3.078] | 500 to 20000 nM | – |
| N#Cc1cncc(COc2cc(O[C@H]3CCc4c(-c5ccccc5F)cccc43)c(Cl)cc2CN[C@H](CNC(=N)N)C(=O)O)c1 [Example 3.083] | < 100 nM | – |
| N#Cc1cncc(COc2cc(O[C@H]3CCc4c(-c5ccccc5)cccc43)c(Cl)cc2CNCC2CCC(=O)N2)c1 (stereo partly shown) [Example 1.014] | – | 100 to 500 nM |
| CCC(O)C(NCc1cc(Cl)c(O[C@H]2CCc3c(-c4ccccc4F)cccc32)cc1OCc1cncc(C#N)c1)C(=O)O (stereo partly shown) [Example 2.125] | – | < 100 nM |
| N#Cc1cncc(COc2cc(O[C@H]3CCc4c(-c5ccccc5F)cccc43)c(Cl)cc2CN[C@H](CC(N)=O)C(=O)O)c1 [Example 3.104] | < 100 nM | – |
| COc1cccc(-c2cccc3c2CC[C@@H]3Oc2cc(OCc3cncc(C#N)c3)c(CN3CCC(CO)CC3)cc2Cl)c1Cl [Example 2.081] | – | 100 to 500 nM |
| C[C@H](NCc1cc(Cl)c(O[C@H]2CCc3c(-c4ccccc4F)cccc32)cc1OCc1cncc(C#N)c1)C(=O)NCC(=O)O [Example 3.058] | 100 to 500 nM | – |
| N#Cc1cncc(COc2cc(O[C@H]3CCc4c(-c5ccccc5F)cccc43)c(Cl)cc2CN[C@@H]2CCC[C@H]2O)c1 [Example 3.018] | < 100 nM | – |
| C[C@@H](O)[C@@H](NCc1cc(Cl)c(O[C@H]2CCc3c(-c4ccccc4F)cccc32)cc1OCc1cncc(C#N)c1)C(=O)O [Example 2.129] | – | < 100 nM |
| N#Cc1cncc(COc2cc(O[C@H]3CCc4c(-c5ccccc5F)cccc43)c(Cl)cc2CN2CCC(O)C(F)(F)C2)c1 (stereo partly shown) [Example 2.097] | – | 500 to 20000 nM |
| CC(C)c1ccccc1-c1cccc2c1CC[C@@H]2Oc1cc(OCc2cncc(C#N)c2)c(CN[C@@H](CO)C(=O)O)cc1Cl [Example 2.034] | – | 100 to 500 nM |
| N#Cc1cncc(COc2cc(O[C@H]3CCc4c(-c5ccc6c(c5)OCO6)cccc43)c(Cl)cc2CN[C@@H](CO)C(=O)O)c1 [Example 3.122] | < 100 nM | – |
| N#Cc1cncc(COc2cc(OC3CCc4c(-c5ccccc5)cccc43)c(Cl)cc2CNCCO)c1 (stereo not shown) [Example 1.004] | – | < 100 nM |
| N#Cc1cncc(COc2cc(O[C@H]3CCc4c(-c5ccccc5)cccc43)c(Cl)cc2CN2CC(C(=O)O)C2)c1 [Example 2.003] | – | < 100 nM |
| C[C@@H](NCc1cc(Cl)c(O[C@H]2CCc3c(-c4ccccc4F)cccc32)cc1OCc1cncc(C#N)c1)C(=O)O [Example 2.141] | – | < 100 nM |
| Cc1ccccc1-c1cccc2c1CC[C@@H]2Oc1cc(OCc2cncc(C#N)c2)c(CN[C@@H](CO)C(=O)O)cc1Cl [Example 2.006] | – | < 100 nM |

| SMILES | IC50 (Table 3) | IC50 (Table 2) |
| --- | --- | --- |
| CCOc1cc(O[C@H]2CCc3c(-c4ccccc4F)cccc32)c(Cl)cc1CN[C@H](CO)C(=O)O [Example 2.155] | – | 100 to 500 nM |
| COc1cccc(-c2cccc3c2CC[C@@H]3Oc2cc(OCc3cncc(C#N)c3)c(CN[C@@H](CO)C(=O)O)cc2Cl)c1 [Example 2.015] | – | < 100 nM |
| N#Cc1cncc(COc2cc(O[C@H]3CCc4c(-c5ccc6c(c5F)OCO6)cccc43)c(Cl)cc2CN[C@@H](CO)C(=O)O)c1 [Example 3.110] | < 100 nM | – |
| Cc1cccc(-c2cccc3c2CC[C@@H]3Oc2cc(OCc3cncc(C#N)c3)c(CN[C@@H](CO)C(=O)O)cc2Cl)c1F [Example 2.046] | – | < 100 nM |
| N#Cc1cc(C#N)cc(COc2cc(O[C@H]3CCc4c(-c5ccc6c(c5F)OCCO6)cccc43)c(Cl)cc2CN[C@@H](CO)C(=O)O)c1 [Example 3.006] | < 100 nM | – |
| N#Cc1cncc(COc2cc(O[C@H]3CCc4c(-c5ccccc5F)cccc43)c(Cl)cc2CNC(CO)CO)c1 [Example 3.129] | < 100 nM | – |
| CC(C)OC(=O)[C@H](CO)NCc1cc(Cl)c(O[C@H]2CCc3c(-c4ccc5c(c4F)OCCO5)cccc32)cc1OCc1cncc(C#N)c1 [Example 3.046] | 500 to 20000 nM | – |
| N#Cc1cncc(COc2cc(O[C@H]3CCc4c(-c5ccc6c(c5F)OCCO6)cccc43)c(Cl)cc2CN[C@@H](CO)C(=O)O)c1 [Example 2.057] | – | < 100 nM |
| N#Cc1cncc(COc2cc(O[C@H]3CCc4c(-c5ccccc5F)cccc43)c(Cl)cc2CN[C@H]2CC[C@H](O)CC2)c1 [Example 3.068] | < 100 nM | – |
| N#Cc1cncc(COc2cc(O[C@H]3CCc4c(-c5ccccc5F)cccc43)c(Cl)cc2CN[C@@H](CO)C(=O)N[C@@H](CO)C(=O)N[C@@H](CO)C(=O)O)c1 [Example 3.048] | < 100 nM | – |
| COc1cc(O[C@H]2CCc3c(-c4ccccc4)cccc32)c(Cl)cc1CN[C@@H](CO)C(=O)O [Example 2.007] | – | 100 to 500 nM |
| N#Cc1cncc(COc2cc(O[C@H]3CCc4c(-c5ccccc5F)cccc43)c(Cl)cc2CN[C@@H]2CCCC[C@H]2O)c1 [Example 3.071] | < 100 nM | – |
| C[C@H](NCc1cc(Cl)c(O[C@H]2CCc3c(-c4ccccc4F)cccc32)cc1OCc1cncc(C#N)c1)C(N)=O [Example 2.168] | – | 100 to 500 nM |
| N#Cc1cncc(COc2cc(O[C@H]3CCc4c(-c5ccccc5F)cccc43)c(Cl)cc2CN[C@@H](CO)C(=O)O)c1 [Example 2.004] | – | < 100 nM |
| N#Cc1cncc(COc2cc(O[C@H]3CCc4c(-c5ccccc5F)cccc43)c(Cl)cc2CN[C@@H](CO)C(=O)NCC(=O)O)c1 [Example 3.044] | < 100 nM | – |
| C[C@H](NCc1cc(Cl)c(O[C@H]2CCc3c(-c4ccc5c(c4Cl)OCCO5)cccc32)cc1OCc1cncc(C#N)c1)C(=O)O [Example 2.163] | – | 100 to 500 nM |
| N#Cc1cc(COc2cc(O[C@H]3CCc4c(-c5cccc(O)c5F)cccc43)c(Cl)cc2CN[C@@H](CO)C(=O)O)cc(NC=O)c1 [Example 3.020] | < 100 nM | – |
| N#Cc1cncc(COc2cc(O[C@H]3CCc4c(-c5ccccc5F)cccc43)c(Cl)cc2CN[C@H](CO)C(=O)O)c1 [Example 2.102] | – | < 100 nM |
| CCOc1cc(O[C@H]2CCc3c(-c4ccccc4F)cccc32)c(Cl)cc1CNC(C)(CO)C(=O)O (stereo partly shown) [Example 2.177] | – | 100 to 500 nM |
| C[C@@H](O)[C@H](NCc1cc(Cl)c(O[C@@H]2CCc3c(-c4ccccc4F)cccc32)cc1OCc1cncc(C#N)c1)C(=O)O [Example 2.138] | – | < 100 nM |
| NC(=O)COc1cc(O[C@H]2CCc3c(-c4ccccc4F)cccc32)c(Cl)cc1CN[C@@H](CO)C(=O)O [Example 2.124] | – | 500 to 20000 nM |
| COc1cccc(-c2cccc3c2CC[C@@H]3Oc2cc(OCc3cncc(C#N)c3)c(CN3CCC[C@@H](O)C3)cc2Cl)c1F [Example 2.055] | – | 100 to 500 nM |
| C[C@H](O)[C@@H](NCc1cc(Cl)c(O[C@H]2CCc3c(-c4ccccc4F)cccc32)cc1OCc1cncc(C#N)c1)C(=O)O [Example 2.122] | – | < 100 nM |
| CC(C)(CNCc1cc(Cl)c(O[C@H]2CCc3c(-c4ccccc4)cccc32)cc1OCc1cncc(C#N)c1)C(=O)O [Example 1.013] | – | 500 to 20000 nM |
| COc1cccc(-c2cccc3c2CC[C@@H]3Oc2cc(OCc3cncc(C#N)c3)c(CN3CCOCC3)cc2Cl)c1Cl [Example 2.082] | – | 500 to 20000 nM |
| N#Cc1cncc(COc2cc(O[C@H]3CCc4c(-c5ccccc5F)cccc43)c(Cl)cc2CNC(Cc2cccnc2)C(=O)O)c1 (stereo partly shown) [Example 3.094] | < 100 nM | – |
| CC(C)OC(=O)[C@H](CO)NCc1cc(Cl)c(O[C@H]2CCc3c(-c4ccccc4F)cccc32)cc1OCc1cncc(C#N)c1 [Example 2.172] | – | 500 to 20000 nM |
